From US11976091B2, “Terpene glycoside derivatives and uses thereof” (Firmenich SA, priority 2018, dated 2024)

What was measured:
[1] = system: panel of 8 trained people; test: Sensory evaluation of taste properties on a scale of −5 to 5 versus 4% w/w sucrose reference solution; assay type: in vivo; details: for Licorice / Sweet / Sweet Lingering: 30 ppm in 4% w/w sucrose solution, scale −5 to 5 (−5 no effect, 5 extremely strong effect, 0 = 4% w/w sucrose reference); for tastes enhanced in the 4% sucrose base: 30 ppm in 4% sucrose base
Protocol: In another experiment, a composition comprising compound of formula I was generated according to the methods described in Example 1. The composition was dissolved in a 4% w/w sucrose solution. A panel of 8 trained people evaluated the test solutions for taste properties (sweet, licorice and sweet lingering) on a scale of −5 to 5 (−5 denoted no effect and 5 denoted extremely strong effect, 0 being the intensity of a reference water solution containing either (i) 4% w/w sucrose solution. The results are shown in the table below.

[2] = system: panel of 8 trained people; test: Sensory evaluation of taste properties (descriptive), samples in 4% w/w sucrose solution; assay type: in vivo; details: for Description (taste properties: sweet, licorice and sweet lingering): panel of 8 trained people
Protocol: A composition comprising Compound I was generated according to the methods described in Example 1. The composition was dissolved in a 4% w/w sucrose solution, at a final concentration of 30 ppm. A panel of 8 trained people evaluated the test solution, as well as samples comprising rebaudioside A, rebaudioside D, or rebaudioside M for taste properties (sweet, licorice and sweet lingering).

[3] = 30 ppm in 4% w/w sucrose solution

Row | Compound | Licorice [1] | Sweet [1] | Sweet Lingering [1] | effect for licorice and sweet lingering tastes ([1]; dosage of 30 ppm in 4% sucrose base) | effect on sweet intensity in the 4% sucrose base ([1]; dosage of 30 ppm, 95% of confidence level) | Description (taste properties: sweet, licorice and sweet lingering) [2, 3] | tastes enhanced in the 4% sucrose base [1] | licorice taste compared to the other samples [2, 3] | lingering taste compared to the others ([2]; 30 ppm test samples in 4% w/w sucrose solution)
1 | C=C1C[C@@]23CC[C@H]4[C@@](C)(CCC[C@@]4(C)C(=O)O[C@@H]4OC(CO[C@@H]5OC(CO)[C@@H](O)C(O)C5O)[C@@H](O)C(O)C4O)[C@@H]2CC[C@]1(O[C@@H]1OC(CO)[C@@H](O)C(O[C@@H]2OC(CO)[C@@H](O)C(O)C2O)C1O[C@@H]1OC(CO)[C@@H](O)C(O)C1O)C3 (some centres unmarked) [Compound I] | 1.4 | 1.1 | 0.4 | without any significant effect | significantly enhanced | Sweet, licorice, lingering |  |  | 
2 | C=C1C[C@@]23CC[C@H]4[C@@](C)(CCC[C@@]4(C)C(=O)O[C@@H]4O[C@H](CO)[C@@H](O)[C@H](O)[C@H]4O)[C@@H]2CC[C@]1(O[C@@H]1O[C@H](CO)[C@@H](O)[C@H](O[C@@H]2O[C@H](CO)[C@@H](O)[C@H](O)[C@H]2O)[C@H]1O[C@@H]1O[C@H](CO)[C@@H](O)[C@H](O)[C@H]1O)C3 [Reb A, rebaudioside A] | 1.3 | 1.5 | 0.5 |  |  | Sweet, licorice, lingering, slightly | enhancing sweet and sweet lingering tastes |  | 
3 | C=C1C[C@@]23CC[C@H]4[C@@](C)(CCC[C@@]4(C)C(=O)O[C@@H]4O[C@H](CO)[C@@H](O)[C@H](O)[C@H]4O[C@@H]4O[C@H](CO)[C@@H](O)[C@H](O)[C@H]4O)[C@@H]2CC[C@]1(O[C@@H]1O[C@H](CO)[C@@H](O)[C@H](O[C@@H]2O[C@H](CO)[C@@H](O)[C@H](O)[C@H]2O)[C@H]1O[C@@H]1O[C@H](CO)[C@@H](O)[C@H](O)[C@H]1O)C3 [Reb D, rebaudioside D] | 1.3 | 1.5 | 0.4 |  |  | Sweet, lingering, licorice |  |  | 
4 | C=C1C[C@@]23CC[C@H]4[C@@](C)(CCC[C@@]4(C)C(=O)O[C@@H]4O[C@H](CO)[C@@H](O)[C@H](O[C@@H]5O[C@H](CO)[C@@H](O)[C@H](O)[C@H]5O)[C@H]4O[C@@H]4O[C@H](CO)[C@@H](O)[C@H](O)[C@H]4O)[C@@H]2CC[C@]1(O[C@@H]1O[C@H](CO)[C@@H](O)[C@H](O[C@@H]2O[C@H](CO)[C@@H](O)[C@H](O)[C@H]2O)[C@H]1O[C@@H]1O[C@H](CO)[C@@H](O)[C@H](O)[C@H]1O)C3 [Reb M, rebaudioside M] | 1.3 | 1.6 | 0.8 |  |  | Licorice, sweet, lingering | enhancing all sweet, licorice and sweet lingering tastes | stronger licorice taste | 
5 | OC[C@H]1O[C@@](CO)(O[C@H]2O[C@H](CO)[C@@H](O)[C@H](O)[C@H]2O)[C@@H](O)[C@@H]1O [Sucrose, sucrose] |  |  |  |  |  | Sweet, slightly lingering |  |  | weaker lingering taste than others
